{
  "source": "ChEMBL document CHEMBL1158027",
  "about": "“Sesquiterpene esters of aristolochic acid from the root and stem of Aristolochia heterophylla” (J Nat Prod, 1999)",
  "data": [
    {"assay": "Cytotoxicity against human HepG2(2.2.15) cells", "format": "functional, cell-based", "units": {"IC50": "µM"}, "values": [
      {"compound": "C/C1=C\\CC/C(C=O)=C\\[C@H](OC(=O)c2cc3c(c4c2c([N+](=O)[O-])cc2ccccc24)OCO3)C/C(C)=C/CC1", "IC50": 7.53},
      {"compound": "C/C1=C\\CC/C(C=O)=C/[C@H](OC(=O)c2cc3c(c4c2c([N+](=O)[O-])cc2ccccc24)OCO3)C/C(C)=C/CC1", "IC50": 8.23},
      {"compound": "COc1cccc2c1cc([N+](=O)[O-])c1c(C(=O)O[C@H]3/C=C(\\C=O)CC/C=C(\\C)CC/C=C(\\C)C3)cc3c(c12)OCO3", "IC50": 4.83},
      {"compound": "COc1cccc2c1cc([N+](=O)[O-])c1c(C(=O)O[C@H]3/C=C(/C=O)CC/C=C(\\C)CC/C=C(\\C)C3)cc3c(c12)OCO3", "IC50": 5.44}
    ]}
  ]
}
